“Also recorded” adds a separate entry of the source.
Experiments:
[1] = system: endogenous Tau-Fyn interaction; test: Endogenous Tau-Fyn PLA in primary neurons; type: cell-based, rat; details: 3 μM and 15 μM, 24 hours
Procedure: Endogenous Tau-Fyn PL, in primary neurons: All PLA protocols were adapted from our recent study (Rush, et al. (2020) Neurobiol Dis 134, 104668).
For the endogenous Tau-Fyn PLA, neurons were grown on coverslips as described above to DIV20, then treated with compound no. 69 or vehicle, and fixed with PFA 24 hours later. Dako Tau (1:1000) and Fyn15 (1:250) antibodies were used. Duolink In Situ Fluorescence kit was used for PLA. Briefly, coverslips with fixed cells were permeabilized for 10 minutes in 0.25% Triton X-100, then blocked in 5% NGS in PBS for one hour at room temperature. Coverslips were incubated overnight at 4° C. with primary antibody in 1% NGS, then washed 3×5 minutes in PBS. Coverslips were then incubated for 1 hour at 37° C. in PLA probes (Anti-Mouse minus, Anti-Rabbit plus). […] To quantify PLA puncta, PLA fluorescence was thresholded, then ImageJ particle analyzer was run, specifying size and circularity to exclude any non-punctate signal. Quantified values were then normalized to values for vehicle-treated slides from that experiment. […]

[2] = system: Tau, Fyn; test: Western blot of Tau, Fyn and GAPDH levels in neurons; type: cell-based, rat; details: 15 μM, 24 hours
Procedure: Like before (Rush, et al. (2020) Neurobiol Dis 134, 104668), at DIV13, neurons were treated with 15 μM compound no. 69 or Vehicle. 24 hours later, cells were harvested in lysis buffer (50 mM Tris, 150 mM NaCl, 5 mM EDTA, 0.1% SDS, 0.1% Triton-X-100, and 0.5% sodium deoxycholate) and centrifuged to remove cellular debris. Samples were diluted in LDS and reducing agent and heated at 70° C. for 10 minutes. Samples were run on 4-12% bis-tris gels in MOPS buffer with 5 μg protein per well, determined by a Bradford assay, then transferred to a PDVF membrane. Membrane was blocked for 1 hour in 50% Odysey blocking buffer then probed overnight with Fyn3 (1:1000) antibody at 4° C. Membrane was washed 3× in TBST, then incubated for 1 hour at RT in IRDye 700 or 800 conjugated secondary and scanned on an Odyssey Scanner. Images were quantified in ImageJ. After probing for GAPDH (1:5,000), the blot was stripped with Restore PLUS Western Blot Sripping Buffer for 30 minutes at room temperature, washed in TBST, and probed for DAKO Tau (1:10,000).

[3] = target: FynSH3 (Homo sapiens (Human), UniProt P06241); test: Isothermal titration calorimetry, FynSH3; type: binding
Source text: Human Fyn-SH3 domain with GST-tag at the N-terminus and a Strep-tag II ([…]) at the C-terminus (GST-Fyn-SH3-Strep) was cloned into pPR-IBA1 vector (IBA Lifesciences) (Cochran, et al. (2014) J. Biomol. Screen. 19, 1338-1349). Codon-optimized human 4R2N Tau for E. coli expression with a Strep-tag II at the C-terminus (His-Tau-Strep) was cloned into pET-28a(+) vector (Novagen). The constructs were transformed into E. coli BL-21(DE3) competent cells (Novagen). For GST-Fyn-SH3-Strep purification, a single colony was inoculated in Luria-Bertani (LB) broth at 37° C. overnight. 10 mL cell culture was added into 500 mL LB medium and cultured at 37° C. 0.5 mM Isopropyl β-D-1-thiogalactopyranoside (IPTG) was added into the culture when OD600 reached 0.7. Cells were further cultured at 25° C. for 4 hours and harvested. Cell pellet was resuspended in lysis buffer (20 mM Tris pH 7.9, 300 mM NaCl, 1 mM TCEP) with 1 tablet of EDTA-free protease inhibitors (ThermoFisher) and 1 mg/ml lysozyme. Cells were disrupted by sonication and debris was removed by centrifugation at 9500 rpm for 1 hour. […]
Purified full-length Tau and FynSH3 were dialyzed into 20 mM Tris and 150 mM NaCl, pH 8.0 with Slide-A-Lyzer G2 Dialysis Cassettes with 10K MWCO (ThermoFisher #87729). […] Protein concentrations were measured on a Nanodrop2000 (ThermoFisher) based on absorbance at 280 nm. […]

Chain of FynSH3 (P06241 82-143): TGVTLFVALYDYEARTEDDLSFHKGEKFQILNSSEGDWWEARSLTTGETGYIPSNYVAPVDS

O=C(CN1CCOc2ccccc21)Nc1nnc(-c2ccccn2)[nH]1 [compound no. 69]
endogenous Tau-Fyn interaction, PLA in primary neurons [1]: inhibited endogenous Tau-Fyn interaction at both 3 μM and 15 μM; also recorded: reduces endogenous Tau-Fyn PLA
Tau, Fyn (and GAPDH) levels in primary neurons [2]: did not lower Tau or Fyn levels; also recorded: does not reduce Tau, Fyn, or GAPDH levels
binding to FynSH3, ITC [3]: did not bind FynSH3

Source: patent US20250367209A1 (SOUTHERN RESEARCH INSTITUTE, priority 2022, published 2025)
